Experimental data as given in patent publication US12161762B2, “Nanohelix-substrate complex for controlling macrophage behavior, preparation method thereof, and method of controlling adhesion and polarization of macrophage by using the same” (Korea University Research and Business Foundation, priority 2020, dated 2024).

Test system: Macrophages (RAW 264.7)
Assay: Macrophage polarization on the substrate with inhibitors of ROCK, myosin II or actin polymerization
Format: cell-based
Conditions: 50 μM Y27632, 10 blebbistatin, 2 μg/mL cytochalasin D; for M1 polarization suppression of macrophages (CD68): M1 medium, 36 hours, bimodal switching "ON" state; for stimulation of robust adhesion (cell area, elongation factor) and expression of M2 polarization (Arg-1 expression): M2 medium, inhibitor treated
Experimental: M1 medium used for assessment of the phenotypic polarization of macrophages was prepared by using a basal medium with 10 ng/mL each of lipopolysaccharide (LPS) and recombinant interferon-gamma (IFN-γ). M2 medium was prepared by using a basal medium with 20 ng/mL each of interleukin-4 (IL4) and interleukin-13 (IL-13). The adhesion-assisted M2 phenotypic polarization of the macrophages was assessed with inhibitors of ROCK (50 μM Y27632), myosin II (10 blebbistatin), or actin polymerization (2 μg/mL of cytochalasin D).
An upper part of FIG. 19 is a confocal immunofluorescent image of CD68, F-actin, and nuclei in macrophages cultured in an M1 polarization medium with and without an inhibitor for ROCK (Y27632), myosin II (blebbistatin), or actin polymerization (cytochalasin D) for 36 hours against and a graph illustrating a cell area, a cell elongation factor, and CD68 fluorescence intensity calculated based on a confocal immunofluorescent experiment result, and a lower part of FIG. 19 is a confocal immunofluorescent image of Arg-1, and F-actin, and nuclei in macrophages cultured in an M2 polarization medium with and without an inhibitor for ROCK (Y27632), myosin II (blebbistatin), or actin polymerization (cytochalasin D) and a graph illustrating a cell area, a cell elongation factor, and Arg-1 fluorescence intensity calculated based on the confocal immunofluorescent experiment result, and a scale bar represents 20 μm.

SMILES	M1 polarization suppression of macrophages (CD68)	stimulation of robust adhesion (cell area, elongation factor) and expression of M2 polarization (Arg-1 expression)
C[C@@H](N)[C@H]1CC[C@H](C(=O)Nc2ccncc2)CC1 [Example Y27632, Y27632]	continuously hindered	hindered
Cc1ccc2c(c1)C(=O)C1(O)CCN(c3ccccc3)C1=N2 (stereo not drawn) [blebbistatin]	continuously hindered	hindered
C=C1[C@@H](C)[C@H]2[C@H](Cc3ccccc3)NC(=O)[C@]23[C@H](OC(C)=O)/C=C/[C@@](C)(O)C(=O)[C@@H](C)C/C=C/[C@H]3[C@@H]1O [cytochalasin D]	continuously hindered	hindered
